Reference: patent publication US20250276069A1, “HETEROBIFUNCTIONAL COMPOSITIONS FOR TARGETED PROTEIN DEGRADATION AND METHODS FOR THEIR USE” (THE SCRIPPS RESEARCH INSTITUTE, priority 2021, published 2025)
“Also recorded” adds a separate entry of the source.

System: HCC1806 cells
Assay: TMT MS quantitative proteomics of live cells treated with FragTAC probes (HCC1806)
Type: cell-based, Homo Sapiens
Details: for Proteins targeted (downregulated) by FragTAC probe: value = downregulated protein; for Downregulated proteins targeted by FragTAC probes (protein listed for the probe code): cell line not given
Procedure: Mammalian cell culture: MDA-MB-231 cells (ATCC) were maintained in DMEM supplemented with 10% (v/v) fetal bovine serum (FBS), 1% (v/v) penicillin/streptomycin, and 2 mM glutamine. HCC1806 cells (ATCC) were maintained in RPMI supplemented with 10% (v/v) fetal bovine serum (FBS), 1% (v/v) penicillin/streptomycin, and 2 mM glutamine. All cell lines were grown at 37° C. in a humidified 5% CO2 atmosphere.
Treatment of Live Cells with FragTAC Probes: Separate 6 cm (for gel-based analyses) or 10 cm (for MS-based analyses) dishes of MDA-MB-231 cells or HCC1806 cells were grown to 80-95% confluency with DMEM media and RPMI media respectively. The growth medium was aspirated, and the cells were washed with Dulbecco's phosphate buffered saline (DPBS). The cells were incubated with serum-free media containing fragment probes (200 μM) or control probes (200 μM) for 6 hours at 37° C. under a 5% CO2 atmosphere. The cultures were scraped, washed with cold DPBS, and collected into 15 mL centrifuge tubes, then transferred to 1.5 mL Eppendorf tubes. The cell suspensions were centrifuged (1,400 g, 3 min) and the pellets were stored at −80° C. until the next stage of processing.
Sample preparation for TMT MS Quantitative Proteomics: For treatment of cell lysates, cells were collected, cell pellets were resuspended in 100 μL DPBS containing 1× Halt protease inhibitor cocktail, and lysed by sonication (15 ms on, 40 ms off, 15% amplitude, 1 s total). Protein concentrations were normalized (2 mg/mL in 100 μL with cold DPBS) using the Lowry Protein Assay (Pierce). Urea (48 mg) was weighed for each sample in 2 mL LoBind Eppendorf tubes and cell lysates (100 μL=200 μg) were added (final urea concentration=8 M). Pellets were resuspended in a freshly prepared 1:1 solution (50 μL) TCEP (200 mM in DPBS) and K2CO3 (600 mM in DPBS) and incubated (30 min, 37° C.) while shaking. After reaction, a solution of freshly prepared iodoacetamide (70 μL, 400 mM in DPBS) was added and incubated for 30 min at room temperature while protected from light. After reaction, 1.8 mL of cold 3:1:2 MeOH/CHCl3/H2O solution was added to each tube, and the samples were centrifuged (10,000×g, 10 min, 4° C.), forming a disc. The supernatant was carefully removed, MeOH (600 μL) was added, samples were centrifuged as previously described and the supernatant was removed. Cell pellets were resuspended in TEAB (160 μL, 100 mM, pH 8.5) and sonicated as described previously. Endoproteinase LysC (20 μL, ½ vial, 10 μg dissolved in 220 μL of 100 mM TEAB pH 8.5) was added to each and incubated at 37° C. for 2 h with shaking. Sequencing-grade modified porcine trypsin (20 μL, 1 vial, 20 μg dissolved in 220 μL of 100 mM TEAB pH 8.5), a solution of Protease Max (2 μL, 1% (w/v) in 100 mM TEAB pH 8.5) and a solution of CaCl2) (2 μL, 100 mM) were added to the samples and incubated at 37° C. overnight (14 h) with shaking. The digest was separated by centrifugation (12,000×g, 10 min, 4° C.). Peptide concentration was determined using Pierce Quantitative Fluorometric Peptide Assay Kit (Thermo Fisher Scientific, 23290) according to manufacturer's instructions. MS-grade acetonitrile (12.5 μL) was added to each and samples were labeled with respective TMT 10 plex isotope (8 μL, 20 μg/μL) for 1 h with occasional vortexing at RT. To quench, hydroxylamine (3 μL, 5% v/v) was added to each sample, vortexed, and incubated for 15 min at RT. Formic acid (5 μL) was added to each tube to acidify and the samples were dried under vacuum centrifugation. The samples were combined by redissolving the contents of one tube in a solution of trifluoroacetic acid (TFA, 400 μL, 0.1% in water) and transferred into each sample until all samples were redissolved. The stepwise process was repeated with formic acid (Buffer A, 200 μL, 0.1% in water) for a final volume of 600 μL. […]

[1] = protein with 2 unique peptides or more, depleted 2-fold or more relative to DMSO control (P value <0.05)
[2] = TMT proteomics, targets with 2 unique peptides or more and depleted 2-fold or more relative to DMSO control (P value <0.05)

SMILES	Proteins targeted (downregulated) by FragTAC probe [1]	Downregulated proteins targeted by FragTAC probes (protein listed for the probe code) [2]	Proteins targeted (downregulated) by FragTAC probe [2]
Cc1ncsc1-c1ccc(CNC(=O)[C@@H]2C[C@@H](O)CN2C(=O)[C@@H](NC(=O)CCOCCOCCOCCC(=O)N2CCN(C(c3ccccc3)c3ccccc3)C[C@@H]2c2ccccc2)C(C)(C)C)cc1 [CMC-6-123, (2S,4R)-1-((S)-16-((S)-4-benzhydryl-2-phenylpiperazin-1-yl)-2-(tert-butyl)-4,16-dioxo-7,10,13-trioxa-3-azahexadecanoyl)-4-hydroxy-N-(4-(4-methylthiazol-5-yl)benzyl)pyrrolidine-2-carboxamide]	ZBTB1; also recorded: ZNF217		
Cc1ncsc1-c1ccc(CNC(=O)[C@@H]2C[C@@H](O)CN2C(=O)[C@@H](NC(=O)CCOCCC(=O)N2CCN(C(c3ccccc3)c3ccccc3)CC2)C(C)(C)C)cc1 [IF-049, (2S,4R)-1-((S)-2-(3-(3-(4-benzhydrylpiperazin-1-yl)-3-oxopropoxy)propanamido)-3,3-dimethylbutanoyl)-4-hydroxy-N-(4-(4-methylthiazol-5-yl)benzyl)pyrrolidine-2-carboxamide]	YIPF3; also recorded: YLPM1; also recorded: ZNF185		
Cc1ncsc1-c1ccc(CNC(=O)[C@@H]2C[C@@H](O)CN2C(=O)[C@@H](NC(=O)CCOCCOCCOCCC(=O)N2CCN(CC3=C(c4ccc(Cl)cc4)CC(C)(C)CC3)CC2)C(C)(C)C)cc1 [IF-060, (2S,4R)-1-((S)-2-(tert-butyl)-16-(4-((4′-chloro-5,5-dimethyl-3,4,5,6-tetrahydro-[1,1′-biphenyl]-2-yl)methyl)piperazin-1-yl)-4,16-dioxo-7,10,13-trioxa-3-azahexadecanoyl)-4-hydroxy-N-(4-(4-methylthiazol-5-yl)benzyl)pyrrolidine-2-carboxamide]		GHITM	
CCn1c2ccccc2c2ccc(CN(C(=O)CCOCCOCCOCCC(=O)N[C@H](C(=O)N3C[C@H](O)C[C@H]3C(=O)NCc3ccc(-c4scnc4C)cc3)C(C)(C)C)C3CCCC3)cc21 [IF-062, (2S,4R)-1-((S)-17-(tert-butyl)-2-cyclopentyl-1-(9-ethyl-9H-carbazol-2-yl)-3,15-dioxo-6,9,12-trioxa-2,16-diazaoctadecan-18-oyl)-4-hydroxy-N-(4-(4-methylthiazol-5-yl)benzyl)pyrrolidine-2-carboxamide]		GHITM	
Cc1ncsc1-c1ccc(CNC(=O)[C@@H]2C[C@@H](O)CN2C(=O)[C@@H](NC(=O)CCOCCOCCOCCC(=O)NCCc2cn(Cc3ccccc3)c3ccccc23)C(C)(C)C)cc1 [IF-063, (2S,4R)-1-((S)-19-(1-benzyl-1H-indol-3-yl)-2-(tert-butyl)-4,16-dioxo-7,10,13-trioxa-3,17-diazanonadecanoyl)-4-hydroxy-N-(4-(4-methylthiazol-5-yl)benzyl)pyrrolidine-2-carboxamide]			TMBIM6
Cc1ncsc1-c1ccc(CNC(=O)[C@@H]2C[C@@H](O)CN2C(=O)[C@@H](NC(=O)CCOCCOCCOCCC(=O)N2CCCC2c2noc(Cc3ccc(Br)cc3)n2)C(C)(C)C)cc1 (stereo partly drawn) [IF-064, (2S,4R)-1-((2S)-16-(2-(5-(4-bromobenzyl)-1,2,4-oxadiazol-3-yl)pyrrolidin-1-yl)-2-(tert-butyl)-4,16-dioxo-7,10,13-trioxa-3-azahexadecanoyl)-4-hydroxy-N-(4-(4-methylthiazol-5-yl)benzyl)pyrrolidine-2-carboxamide]		GHITM	
Cc1ncsc1-c1ccc(CNC(=O)[C@@H]2C[C@@H](O)CN2C(=O)[C@@H](NC(=O)CCOCCOCCOCCC(=O)NC2=NC(c3ccccc3)c3ccccc3NC2=O)C(C)(C)C)cc1 (stereo partly drawn) [IF-065, (2S,4R)-1-((2S)-2-(tert-butyl)-4,16-dioxo-16-((2-oxo-5-phenyl-2,5-dihydro-1H-benzo[e][1,4]diazepin-3-yl)amino)-7,10,13-trioxa-3-azahexadecanoyl)-4-hydroxy-N-(4-(4-methylthiazol-5-yl)benzyl)pyrrolidine-2-carboxamide]		BRD2	TMBIM6
Cc1ncsc1-c1ccc(CNC(=O)[C@@H]2C[C@@H](O)CN2C(=O)[C@@H](NC(=O)CCOCCOCCOCCNC(=O)CCc2nc(-c3ccccc3)c(-c3ccccc3)o2)C(C)(C)C)cc1 [IF-072, (2S,4R)-1-((S)-2-(tert-butyl)-19-(4,5-diphenyloxazol-2-yl)-4,17-dioxo-7,10,13-trioxa-3,16-diazanonadecanoyl)-4-hydroxy-N-(4-(4-methylthiazol-5-yl)benzyl)pyrrolidine-2-carboxamide]	ZC3H14; also recorded: ZNF800		
Cc1ncsc1-c1ccc(CNC(=O)[C@@H]2C[C@@H](O)CN2C(=O)[C@@H](NC(=O)CCOCCOCCOCCNC(=O)c2[nH]c3ccc(Cl)cc3c2-c2ccccc2)C(C)(C)C)cc1 [IF-073, 5-chloro-N-((S)-14-((2S,4R)-4-hydroxy-2-((4-(4-methylthiazol-5-yl)benzyl)carbamoyl)pyrrolidine-1-carbonyl)-15,15-dimethyl-12-oxo-3,6,9-trioxa-13-azahexadecyl)-3-phenyl-1H-indole-2-carboxamide]		CYP1B1 and FAM177A1 and GHITM and LGMN	NPC2 and PCLAF and RPLP1 and SETX and TXNIP
Cc1ccc(S(=O)(=O)N2CCN(C(=O)CCCCC(=O)N[C@H](C(=O)N3C[C@H](O)C[C@H]3C(=O)NCc3ccc(-c4scnc4C)cc3)C(C)(C)C)CC2)cc1 [IF-080, (2S,4R)-1-((S)-3,3-dimethyl-2-(6-oxo-6-(4-tosylpiperazin-1-yl)hexanamido)butanoyl)-4-hydroxy-N-(4-(4-methylthiazol-5-yl)benzyl)pyrrolidine-2-carboxamide]	ZBTB11	CTSZ and INCENP and KIF20A and KIF22 and ANLN	PRC1 and RACGAP1 and TPX2 and TXNIP and UHRF1
Cc1ncsc1-c1ccc(CNC(=O)[C@@H]2C[C@@H](O)CN2C(=O)[C@@H](NC(=O)CCOCCOCCC(=O)N2CCN(C(c3ccccc3)c3ccccc3)CC2)C(C)(C)C)cc1 [LPC020, (2S,4R)-1-((S)-2-(3-(2-(3-(4-benzhydrylpiperazin-1-yl)-3-oxopropoxy)ethoxy)propanamido)-3,3-dimethylbutanoyl)-4-hydroxy-N-(4-(4-methylthiazol-5-yl)benzyl)pyrrolidine-2-carboxamide]	YIPF3 and ZC3H13 and ZC3HC1 and ZFR and ZMYM4 and ZNF638 and ZNF830		
Cc1ncsc1-c1ccc(CNC(=O)[C@@H]2C[C@@H](O)CN2C(=O)[C@@H](NC(=O)CCOCCOCCC(=O)NCCC(c2ccccc2)c2ccccc2)C(C)(C)C)cc1 [LPC022, (2S,4R)-1-((S)-2-(tert-butyl)-4,13-dioxo-17,17-diphenyl-7,10-dioxa-3,14-diazaheptadecanoyl)-4-hydroxy-N-(4-(4-methylthiazol-5-yl)benzyl)pyrrolidine-2-carboxamide]	ZFR and ZMYM4		
